How the values were obtained:
Leptochloa chinensis = experiment: Weed control effect evaluation in rice field; format: in vivo; conditions: 60 g/ha; rice field pot, 14 days after treatment
Method in brief: (§1)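 Pots of paddy soil sown with weeds under 0.5–1 cm water, then 3–4 cm; WP or SC dilutions dripped at 0.5-leaf stage (Sagittaria tubers at primary-leaf stage). Weeds scored visually 14 days after treatment on 0–5 scale: 5 >85%, 4 60–85%, 3 40–60%, 2 20–40%, 1 5–20%, 0 <5% growth control.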

Monochoria vaginalis = experiment: Weed control effect evaluation in rice field; format: in vivo; conditions: 60 g/ha; rice field pot, 14 days after treatment; ALS-inhibitor resistant weed from Heilongjiang
Method in brief: as §1

Echinochloa crusgali [1] = experiment: Weed control effect evaluation in rice field; format: in vivo; conditions: 60 g/ha; rice field pot, 14 days after treatment; ALS-inhibitor resistant weed from Heilongjiang
Method in brief: as §1

Sagittaria trifolia = experiment: Weed control effect evaluation in rice field; format: in vivo; conditions: 60 g/ha; rice field pot, 14 days after treatment; ALS-inhibitor resistant weed from Heilongjiang
Method in brief: as §1

Rice = experiment: Transplanted rice safety evaluation; format: in vivo, rice (japonica rice/Indica rice); conditions: 60 g/ha; transplanted 3 leaf stage rice, 21 days after treatment
From the text: The activity level criteria for harmful plant damage (i.e., growth control rate) are as follows: • Level 5: growth control rate is above 85%; • Level 4: growth control rate is greater than or equal to 60% and less than 85%; • Level 3: growth control rate is greater than or equal to 40% and less than 60%; • Level 2: growth control rate is greater than or equal to 20% and less than 40%; • Level 1: growth control rate is greater than or equal to 5% and less than 20%; • Level 0: growth control rate is less than 5%.
In addition, the rice field soil that loaded into the 1/1,000,000 ha pot was leveled to keep water storage at 3-4 cm depth. The 3 leaf stage rice (japonica rice/Indica rice) was transplanted at 3 cm of transplanting depth the next day. The compound of the present invention was treated by the same way after 5 days of transplantation.
The fertility condition of Echinochloa crusgali, Scirpus juncoides, Bidens tripartita, Leptochloa chinensis, Sagittaria trifolia and Monochoria vaginalis 14 days after the treatment of the compound of the invention and the fertility condition of rice 21 days after the treatment of the compound of the invention respectively with the naked eye. Evaluate the weed control effect with 0-5 activity standard level. Many compounds show excellent activity and selectivity.

Amaranthus retroflexus = experiment: Weeding effect in post-emergence stage; format: in vivo; conditions: 250 g/ha; 2 leaf stage; 15 days after application; fresh weight control rate
Method in brief: (§2)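 Reported levels reflect fresh weight growth control rate banded 0 (<5%) through 5 (>85%), averaged over three repetitions. Treatment: foliar spray of 2-leaf-stage greenhouse plants at 15 to 500 g/ha, with 1.5 liter/ha methyl oleate synergist; assessment 15 days after application.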

Setaria viridis = experiment: Weeding effect in post-emergence stage; format: in vivo; conditions: 250 g/ha; 2 leaf stage; 15 days after application; fresh weight control rate
Method in brief: as §2

Digitaria sanguinalis = experiment: Weeding effect in post-emergence stage; format: in vivo; conditions: 250 g/ha; 2 leaf stage; 15 days after application; fresh weight control rate
Method in brief: as §2

Abutilon theophrasti = experiment: Weeding effect in post-emergence stage; format: in vivo; conditions: 250 g/ha; 2 leaf stage; 15 days after application; fresh weight control rate
Method in brief: as §2

Echinochloa crusgali [2] = experiment: Weeding effect in post-emergence stage; format: in vivo; conditions: 250 g/ha; 2 leaf stage; 15 days after application; fresh weight control rate
Method in brief: as §2

With `CC[S@@+]([O-])c1c(C(F)(F)F)ccc(C(=O)Nc2nnc(C)o2)c1SC` [Compound 548] the “Herbicidal effects of compounds, Leptochloa chinensis, 0-5 activity standard level” value (Leptochloa chinensis) was 5 (Level 5: growth control rate is above 85%), the “Herbicidal effects of compounds, Monochoria vaginalis, 0-5 activity standard level” value (Monochoria vaginalis) was 5 (Level 5: growth control rate is above 85%) and the “Herbicidal effects of compounds, Echinochloa crusgali, 0-5 activity standard level” value (Echinochloa crusgali [1]) was 5 (Level 5: growth control rate is above 85%). For the same compound, the “Herbicidal effects of compounds, Sagittaria trifolia, 0-5 activity standard level” value (Sagittaria trifolia) was 5 (Level 5: growth control rate is above 85%), the “Herbicidal effects of compounds, Rice, 0-5 activity standard level” value (Rice) was 0 (Level 0: growth control rate is less than 5%) and the “weeding effect in post-emergence stage, activity level (growth control rate), Amaranthus retroflexus” value (Amaranthus retroflexus) was 5 (Level 5: growth control rate is above 85%). The “weeding effect in post-emergence stage, activity level (growth control rate), Setaria viridis” value (Setaria viridis) was 5 (Level 5: growth control rate is above 85%), the “weeding effect in post-emergence stage, activity level (growth control rate), Digitaria sanguinalis” value (Digitaria sanguinalis) was 5 (Level 5: growth control rate is above 85%) and the “weeding effect in post-emergence stage, activity level (growth control rate), Abutilon theophrasti” value (Abutilon theophrasti) was 5 (Level 5: growth control rate is above 85%). For the same compound, the “weeding effect in post-emergence stage, activity level (growth control rate), Echinochloa crusgali” value (Echinochloa crusgali [2]) was 5 (Level 5: growth control rate is above 85%).

Reference: patent publication US12643871B2, “Aryl formamide compound containing chiral sulfur oxide or salt thereof, preparation method, herbicidal composition and use thereof” (Qingdao Kingagroot Chemical Compound Co., Ltd., priority 2019, dated 2026)
